# Experimental data published in patent publication US11759462B2, “Spirocyclic compounds as tryptophan hydroxylase inhibitors” (priority 2013, dated 2023).
# Molecular target: T1, Recombinant human TPH1 (MBP tagged) (Homo sapiens, UniProt P17752)
# T1 construct: cloning full length human TPH1 cDNA in to a bacterial pMAL-c5E expression vector; made in house; host or cells: E. coli BL21 (DE3)
# T1 sequence (P17752 1-444): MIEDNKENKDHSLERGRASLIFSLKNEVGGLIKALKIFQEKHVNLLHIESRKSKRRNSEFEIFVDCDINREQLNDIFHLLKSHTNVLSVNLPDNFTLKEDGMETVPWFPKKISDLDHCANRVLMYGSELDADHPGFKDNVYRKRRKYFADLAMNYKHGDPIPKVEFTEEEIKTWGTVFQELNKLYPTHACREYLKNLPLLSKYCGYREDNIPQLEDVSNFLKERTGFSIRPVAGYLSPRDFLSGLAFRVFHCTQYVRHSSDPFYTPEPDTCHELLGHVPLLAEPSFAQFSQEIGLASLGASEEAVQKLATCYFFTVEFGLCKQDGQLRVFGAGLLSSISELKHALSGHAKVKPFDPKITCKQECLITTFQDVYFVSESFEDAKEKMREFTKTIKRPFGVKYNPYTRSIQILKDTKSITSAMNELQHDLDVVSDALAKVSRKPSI
# Assay: TPH1 in vitro inhibition assay (kinetic fluorescence)
# Format: biochemical
# Settings: TPH1 Range (TPH1 inhibition IC50)
# In short: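 Final mix: 15 nM MBP-TPH1, 30 μM Trp, 36 μM 6-methyltetrahydropterin, 25 μM ferrous ammonium sulfate, 50 mM MES pH 7.1, 1% DMSO, room temperature.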
row,IC50 [µM],SMILES
1,< 0.05,"Nc1nc(O[C@H](c2ccc(-c3ccc4ncc(F)cc4c3)cc2)C(F)(F)F)cc(N2CCC3(CC2)CN[C@H](C(=O)O)C3)n1 [Example 55dc, (S)-8-(2-amino-6-((R)-2,2,2-trifluoro-1-(4-(3-fluoroquinolin-6-yl)phenyl)ethoxy)pyrimidin-4-yl)-2,8-diazaspiro[4.5]decane-3-carboxylic acid]"

# Same assay, conditions: read-out: TPH1 Range (TPH1 inhibition IC50)
row,IC50 [µM],SMILES
1,0.05 to 0.3,"Cc1cc(C)cc(-c2ccc([C@@H](Oc3cc(N4CCC5(CC4)CN[C@H](C(=O)O)C5)nc(N)n3)C(F)(F)F)cc2)c1 [Example 55cq, (S)-8-(2-amino-6-((R)-1-(3′,5′-dimethyl-[1,1′-biphenyl]-4-yl)-2,2,2-trifluoroethoxy)pyrimidin-4-yl)-2,8-diazaspiro[4.5]decane-3-carboxylic acid]"
2,0.3 to 3,"Nc1nc(O[C@H](c2ccc(-c3ccc(F)c(F)c3)cc2)C(F)(F)F)cc(N2CCC3(CC2)CN[C@H](C(=O)O)C3)n1 [Example 55cr, (S)-8-(2-amino-6-((R)-1-(3′,4′-difluoro-[1,1′-biphenyl]-4-yl)-2,2,2-trifluoroethoxy)pyrimidin-4-yl)-2,8-diazaspiro[4.5]decane-3-carboxylic acid]"
3,0.3 to 3,"Cc1ccc(C)c(-c2ccc([C@@H](Oc3cc(N4CCC5(CC4)CN[C@H](C(=O)O)C5)nc(N)n3)C(F)(F)F)cc2)c1 [Example 55cs, (S)-8-(2-amino-6-((R)-1-(2′,5′-dimethyl-[1,1′-biphenyl]-4-yl)-2,2,2-trifluoroethoxy)pyrimidin-4-yl)-2,8-diazaspiro[4.5]decane-3-carboxylic acid]"
4,0.3 to 3,"CCCCc1ccc(-c2ccc([C@@H](Oc3cc(N4CCC5(CC4)CN[C@H](C(=O)O)C5)nc(N)n3)C(F)(F)F)cc2)cc1 [Example 55ct, (S)-8-(2-amino-6-((R)-1-(4′-butyl-[1,1′-biphenyl]-4-yl)-2,2,2-trifluoroethoxy)pyrimidin-4-yl)-2,8-diazaspiro[4.5]decane-3-carboxylic acid]"
5,0.3 to 3,"Cc1ccc(-c2ccc([C@@H](Oc3cc(N4CCC5(CC4)CN[C@H](C(=O)O)C5)nc(N)n3)C(F)(F)F)cc2)cc1F [Example 55cu, (S)-8-(2-amino-6-((R)-2,2,2-trifluoro-1-(3′-fluoro-4′-methyl-[1,1′-biphenyl]-4-yl)ethoxy)pyrimidin-4-yl)-2,8-diazaspiro[4.5]decane-3-carboxylic acid]"
6,0.3 to 3,"CS(=O)(=O)c1ccc(-c2ccc([C@@H](Oc3cc(N4CCC5(CC4)CN[C@H](C(=O)O)C5)nc(N)n3)C(F)(F)F)cc2)cc1 [Example 55cv, (S)-8-(2-amino-6-((R)-2,2,2-trifluoro-1-(4′-(methylsulfonyl)-[1,1′-biphenyl]-4-yl)ethoxy)pyrimidin-4-yl)-2,8-diazaspiro[4.5]decane-3-carboxylic acid]"
7,0.3 to 3,"Cc1ccc(-c2ccc([C@@H](Oc3cc(N4CCC5(CC4)CN[C@H](C(=O)O)C5)nc(N)n3)C(F)(F)F)cc2)cc1 [Example 55cw, (S)-8-(2-amino-6-((R)-2,2,2-trifluoro-1-(4′-methyl-[1,1′-biphenyl]-4-yl)ethoxy)pyrimidin-4-yl)-2,8-diazaspiro[4.5]decane-3-carboxylic acid]"
8,0.3 to 3,"Cc1cccc(-c2ccc([C@@H](Oc3cc(N4CCC5(CC4)CN[C@H](C(=O)O)C5)nc(N)n3)C(F)(F)F)cc2)c1 [Example 55cx, (S)-8-(2-amino-6-((R)-2,2,2-trifluoro-1-(3′-methyl-[1,1′-biphenyl]-4-yl)ethoxy)pyrimidin-4-yl)-2,8-diazaspiro[4.5]decane-3-carboxylic acid]"
9,0.3 to 3,"Nc1nc(O[C@H](c2ccc(-c3ccc(Cl)cc3)cc2)C(F)(F)F)cc(N2CCC3(CC2)CN[C@H](C(=O)O)C3)n1 [Example 55cy, (S)-8-(2-amino-6-((R)-1-(4′-chloro-[1,1′-biphenyl]-4-yl)-2,2,2-trifluoroethoxy)pyrimidin-4-yl)-2,8-diazaspiro[4.5]decane-3-carboxylic acid]"
10,0.05 to 0.3,"Nc1nc(O[C@H](c2ccc(-c3coc4ccccc34)cc2)C(F)(F)F)cc(N2CCC3(CC2)CN[C@H](C(=O)O)C3)n1 [Example 55cz, (S)-8-(2-amino-6-((R)-1-(4-(benzofuran-3-yl)phenyl)-2,2,2-trifluoroethoxy)pyrimidin-4-yl)-2,8-diazaspiro[4.5]decane-3-carboxylic acid]"
11,< 0.05,"Nc1nc(O[C@H](c2ccc(-c3ccc4[nH]cnc4c3)cc2)C(F)(F)F)cc(N2CCC3(CC2)CN[C@H](C(=O)O)C3)n1 [Example 55d, (S)-8-(6-((R)-1-(4-(1H-benzo[d]imidazol-5-yl)phenyl)-2,2,2-trifluoroethoxy)-2-aminopyrimidin-4-yl)-2,8-diazaspiro[4.5]decane-3-carboxylic acid]"
12,0.3 to 3,"COc1ccc(F)cc1-c1ccc([C@@H](Oc2cc(N3CCC4(CC3)CN[C@H](C(=O)O)C4)nc(N)n2)C(F)(F)F)cc1 [Example 55da, (S)-8-(2-amino-6-((R)-2,2,2-trifluoro-1-(5′-fluoro-2′-methoxy-[1,1′-biphenyl]-4-yl)ethoxy)pyrimidin-4-yl)-2,8-diazaspiro[4.5]decane-3-carboxylic acid]"
13,0.3 to 3,"Nc1nc(O[C@H](c2ccc(-c3ccc4c(c3)OC(=O)CC4)cc2)C(F)(F)F)cc(N2CCC3(CC2)CN[C@H](C(=O)O)C3)n1 [Example 55db, (S)-8-(2-amino-6-((R)-2,2,2-trifluoro-1-(4-(2-oxochroman-7-yl)phenyl)ethoxy)pyrimidin-4-yl)-2,8-diazaspiro[4.5]decane-3-carboxylic acid]"
14,0.05 to 0.3,"CCCOc1ccc(-c2ccc([C@@H](Oc3cc(N4CCC5(CC4)CN[C@H](C(=O)O)C5)nc(N)n3)C(F)(F)F)cc2)cc1 [Example 55dd, (S)-8-(2-amino-6-((R)-2,2,2-trifluoro-1-(4′-propoxy-[1,1′-biphenyl]-4-yl)ethoxy)pyrimidin-4-yl)-2,8-diazaspiro[4.5]decane-3-carboxylic acid]"
15,0.05 to 0.3,"CCN(CC)C(=O)c1ccc(-c2ccc([C@@H](Oc3cc(N4CCC5(CC4)CN[C@H](C(=O)O)C5)nc(N)n3)C(F)(F)F)cc2)cc1 [Example 55de, (S)-8-(2-amino-6-((R)-1-(4′-(diethylcarbamoyl)-[1,1′-biphenyl]-4-yl)-2,2,2-trifluoroethoxy)pyrimidin-4-yl)-2,8-diazaspiro[4.5]decane-3-carboxylic acid]"
16,0.05 to 0.3,"NC(=O)c1ccc(-c2ccc([C@@H](Oc3cc(N4CCC5(CC4)CN[C@H](C(=O)O)C5)nc(N)n3)C(F)(F)F)cc2)cc1 [Example 55df, (S)-8-(2-amino-6-((R)-1-(4′-carbamoyl-[1,1′-biphenyl]-4-yl)-2,2,2-trifluoroethoxy)pyrimidin-4-yl)-2,8-diazaspiro[4.5]decane-3-carboxylic acid]"
17,0.05 to 0.3,"CNC(=O)c1ccc(-c2ccc([C@@H](Oc3cc(N4CCC5(CC4)CN[C@H](C(=O)O)C5)nc(N)n3)C(F)(F)F)cc2)cc1 [Example 55dg, (S)-8-(2-amino-6-((R)-2,2,2-trifluoro-1-(4′-(methylcarbamoyl)-[1,1′-biphenyl]-4-yl)ethoxy)pyrimidin-4-yl)-2,8-diazaspiro[4.5]decane-3-carboxylic acid]"
